Laboratory results taken from ChEMBL document CHEMBL2321848, “Optimization of benzyloxazoles as non-nucleoside inhibitors of HIV-1 reverse transcriptase to enhance Y181C potency” (Bioorg Med Chem Lett, 2013).

Key:
[1] = test system: Human immunodeficiency virus 1; assay: Antiviral activity against multidrug resistant HIV1 IIIB containing reverse transcriptase Y181C mutation infected in human MT2 cells assessed as cytoprotection from infection by MTT colorimetric method; format: functional, organism-based
[2] = test system: Human immunodeficiency virus 1; assay: Antiviral activity against multidrug resistant HIV1 IIIB containing reverse transcriptase K103N and Y181C mutation infected in human MT2 cells assessed as cytoprotection from infection by MTT colorimetric method; format: functional, organism-based
MT2 = assay: (§1) Cytotoxicity in human MT2 cells assessed as inhibition of cell growth; format: cell-based; settings: mt2
[3] = test system: Human immunodeficiency virus 1; assay: microbe, parasite or virus in culture; settings: Human immunodeficiency virus 1, IIIB, MT2
Description: Antiviral activity against multidrug resistant HIV1 IIIB containing reverse transcriptase infected in human MT2 cells assessed as cytoprotection from infection by MTT colorimetric method

[4] = Octanol-water partition coefficient, log P of the compound; format: physicochemical
[5] = as §1; format: cell-based; settings: MT2 cells
[6] = Human immunodeficiency virus 1, IIIB, MT2, read-out: EC50

Structure (SMILES)	EC50 [1, 6] [nM]	EC50 [2, 6] [nM]	CC50 (MT2) [nM]	EC50 [3] [nM]	logP [4]	EC50 ([2]; mt2)	EC50 ([1]; mt2)	CC50 [5] [nM]
N#Cc1ccc(Nc2ncc(Cc3c(F)cc(CC4CC4)cc3F)o2)cc1Cl	1200	15000	29000	68	–	–	–	–
CCc1cc(F)c(Cc2cnc(Nc3ccc(C#N)c(Cl)c3)o2)c(F)c1	6.9	210	10000	1.3	–	–	–	–
N#Cc1ccc(Nc2ncc(Cc3c(F)cc(C4CC4)cc3F)o2)cc1Cl	1500	10700	65000	24	3.3	–	–	–
CCc1cc(F)c(Cc2cnc(Nc3ccc(Oc4cccnc4)c(Cl)c3)o2)c(F)c1	60	800	5000	5	–	–	–	–
Cc1cc(F)c(Cc2cnc(Nc3ccc(C#N)c(Cl)c3)o2)c(F)c1	210	7200	31000	11	–	–	–	–
CCOc1cc(F)c(Cc2cnc(Nc3ccc(C#N)c(Cl)c3)o2)c(F)c1	48	750	15000	28	–	–	–	–
N#Cc1ccc(Nc2ncc(Cc3c(F)cccc3F)o2)cc1	–	–	–	–	–	Not Active	–	–
Cc1ccnc2c1NC(=O)c1cccnc1N2C1CC1 [NEVIRAPINE]	–	–	–	–	–	Not Active	Not Active	> 100000
COCc1cc(F)c(Cc2cnc(Nc3ccc(C#N)c(Cl)c3)o2)c(F)c1	690	6300	15000	3.6	–	–	–	–
CCC(C)c1cc(F)c(Cc2cnc(Nc3ccc(C#N)c(Cl)c3)o2)c(F)c1 (racemic)	150	2800	40000	120	–	–	–	–
CC(C)(C)c1cc(Cl)c(Cc2cnc(Nc3ccc(C#N)c(Cl)c3)o2)c(Cl)c1	–	–	6000	1300	–	Not Active	Not Active	–
N#Cc1ccc(Nc2ncc(Cc3c(F)cc(F)cc3F)o2)cc1Cl	910	–	7000	9.1	–	Not Active	–	–
CC(C)c1cc(F)c(Cc2cnc(Nc3ccc(C#N)c(Cl)c3)o2)c(F)c1	7.2	120	5000	5.2	3.7	–	–	–
